{"source": "paper PMC7615676", "about": "“Short-course combination treatment for experimental chronic Chagas disease” (Science translational medicine, 2023)", "key": {"[1]": {"test_system": "T. cruzi epimastigotes bearing mutations in cytochrome b", "assay": "epimastigote drug sensitivity assay, cytochrome b mutant / resistant lines", "type": "cell-based, Trypanosoma cruzi", "conditions": "for EC50: Trypanosoma cruzi; for fold change from WT, L197I: compound 3-resistant line (L197I); for fold change from WT, F222L: compound 5-resistant line (F222L)", "method": "T. cruzi epimastigotes from the Silvio strain (MHOM/BR/78/Silvio; clone X10/7A) were grown at 28°C in RTH/FBS medium ([80]).\nT. cruzi epimastigote assays carried out as described previously ([43]).\nCompound-resistant cell lines were generated by subculturing clones of wild-type T. cruzi epimastigotes in the continuous presence of compound 3 or compound 5. Starting at sublethal concentrations, drug concentrations in 3 independent cultures were increased in a stepwise manner, usually by 2-fold. When parasites were able to survive and grow in compound concentrations equivalent to >30-fold their established EC50 value, they were cloned by limiting dilution in the presence of compound. Three independent clones were selected from each compound for further study."}, "[2]": {"target": "T. cruzi complex III (epimastigote lysates) (Trypanosoma cruzi, UniProt Q9T479)", "sequence (Q9T479 entry or part of it, one chain of several)": "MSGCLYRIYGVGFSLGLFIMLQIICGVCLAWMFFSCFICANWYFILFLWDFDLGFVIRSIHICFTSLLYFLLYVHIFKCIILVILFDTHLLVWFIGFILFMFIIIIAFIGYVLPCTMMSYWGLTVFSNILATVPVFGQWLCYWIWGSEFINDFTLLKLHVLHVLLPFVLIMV", "assay": "T. cruzi complex III assay", "type": "biochemical", "conditions": "decylubiquinol substrate", "method": "Complex III activity within these lysates was monitored in the presence and absence of compound 3, compound 5 and related analogues from this series, using decylubiquinol as a pseudo-substrate ([43]).\nMeasurement of complex III activity and inhibition were performed as described previously ([43])."}, "[3]": {"assay": "bioanalysis of blood samples from in vivo efficacy studies", "set-up": "species or system BALB/c mice", "conditions": "for AUC0-7h Day 1, unbound concentrations of 4 / AUC0-7h Day 5, unbound concentrations of 4 / Cmax Day 1, unbound concentrations of 4 / Cmax Day 5, unbound concentrations of 4: 5 days; for AUC(0-t) / Cmax: BALB/c, mouse, whole blood, po", "method": "Following the first daily dose on day 1 and last day of treatment, serial blood samples were taken by the tail vein from all treated mice pre-dose, then 30 minutes, 1, 2, 4, and 8 hours post-dose, mixed with two volumes of distilled water and analyzed for test compound. Quantification of compounds was performed by means of LC/MSMS and exposure parameters namely Cmax and AUClast were estimated using Phoenix 64 (Pharsight Certara)."}, "[4]": {"assay": "plasma protein binding, equilibrium dialysis", "type": "in vitro ADME", "conditions": "pH 7.4, mouse plasma, read-out: Mouse PPB % (converted)", "method": "In vitro plasma protein binding was measured in mouse and human plasma using equilibrium dialysis at a nominal concentration of 2 μM. The RED inserts were placed in the 48 wells of the Teflon Plate (Pierce). Samples were prepared by mixing the test compound with plasma at the appropriate concentrations to yield a final drug concentration of 2 μM. Triplicate aliquots of plasma containing compounds at a concentration of 2 μM were pipetted to plasma side (red) of the insert, and PBS (phosphate buffered saline) pH 7.4 was placed into the receiver side (white) of the insert. The plate was covered with the sealing tape and incubated in a 37 °C orbital shaker water bath at approximately 150 rpm for 4 h. Following incubation, samples were prepared in a mixed matrix configuration. Aliquots of samples were pipetted into 96-well plates, and precipitation buffer was added to protein precipitate the samples. Samples were vortexed to mix, then centrifuged for 15 min at 3700 rpm and 4 °C. The supernatant was assayed directly by LC−MS/MS. The following equation was used to calculate the percentage bound drug fraction using this equilibrium dialysis method\n% unbound = (buffer chamber]/[plasma chamber) x100"}, "[5]": {"test_system": "chronic T. cruzi infection (CL Brener) in BALB/c mice", "assay": "bioluminescent mouse model of chronic Chagas disease", "type": "in vivo, Trypanosoma cruzi", "method": "Compound 2 was evaluated in a bioluminescent mouse model of Chagas disease designed to mimic chronic infections. This model successfully differentiates the clinically used drugs from the clinically invalidated CYP51 inhibitors ([21]). Key features of this model include immunosuppression of mice following cessation of treatment to allow detection of parasite relapses, and ex vivo bioluminescence imaging that allows tissue-specific visualization of parasites. Treatments are considered efficacious if there is no evidence of bioluminescence during in vivo (mouse) and ex vivo (organ/tissue) imaging following immunosuppression ([38]). Under these experimental conditions, compound 2 was able to prevent parasite relapse in 2 of the 6 mice treated orally twice daily for 10 days at 50 mg/kg (Table S1). Increasing the dose to 100 mg/kg or extending treatment duration to 21 days provided similar partial efficacy rates.\nExperiments followed a similar protocol to that described in ([21]). All animals were female (BALB/cAnNCrlC mice, 6-8 weeks old, strain code: 028, supplier: Charles River (UK)). We have previously shown that there are no differences in the bioluminescence profiles between infected males and females ([77]). Animals were maintained under specific pathogen-free conditions in individually ventilated cages. They experienced a 12-hour light/dark cycle, with access to food and water ad libitum. Mice were randomly selected and distributed into cages on arrival day by a Named Animal Care and Welfare Officer (NACWO), at LSHTM biological service facility (BSF). For efficacy experiments animals were randomly selected from the cages and ear/tail tagged on the infection day, starting from number 1. The same mouse ID was kept until the experimental endpoint. Mice were infected by i.p injection with 1x10^3 trypomastigotes derived from SCID mouse blood ([67]). To confirm infection, mice were imaged around the peak of parasite load. […] Treatment initiated in the chronic stage of infection ranging between 90 and 127 days post-infection. Drugs were administered by oral gavage (~200 μl), and vehicle only (0.5% w/v hydroxypropylmethylcellulose with 0.4% v/v Tween 80 and 0.5% v/v benzyl alcohol) was administered to control mice. Total number of animals for each study arm is shown in the relevant figures. To detect residual infection, mice were immunosuppressed using cyclophosphamide (at 200 mg/kg) by ip injection every 4 days for a maximum of three doses. For in vivo imaging, mice were injected ip with 150 mg/kg D-luciferin in Dulbecco’s Ca^2+/Mg^2+-free PBS, then anaesthetized using 2.5% (v/v) isofluorane in oxygen. Images were obtained using an IVIS Lumina II system (Caliper Life Science) 10−20 min after D-luciferin administration. The detection threshold was established from uninfected mice. Organs/tissue samples were assessed by ex vivo imaging as described previously ([21]). The limit of detection in this system is less than 20 parasites ([29])."}, "[6]": {"conditions": "4 10 mg/kg bid + BNZ 30mg/kg qd"}, "[7]": {"conditions": "4 30 mg/kg bid + BNZ 30mg/kg qd"}}, "note": "Values joined by “and” are separate entries in the source; they are usually repeats but may differ in a detail not shown here. Identical values can stand only once. Like-named read-outs stand apart in the source and are kept apart here."}
{"smiles": "COc1ccc(-c2c(C)[nH]c3nc(N)nc(C)c23)c(OC)c1", "note": "[Compound 4, 5-(2,4-Dimethoxyphenyl)-4,6-dimethyl-7H-pyrrolo[2,3-d]pyrimidin-2-amine]", "values": [{"measurement": "EC50", "setting": "[1]; read-out: EC50 F222L", "result": "6380 ± 436", "unit": "nM"}, {"measurement": "EC50", "setting": "[1]; read-out: EC50 L197I", "result": "432 ± 15", "unit": "nM"}, {"measurement": "fold change from WT, L197I", "setting": "[1]", "result": 5, "unit": "fold"}, {"measurement": "fold change from WT, F222L", "setting": "[1]", "result": 73, "unit": "fold"}, {"measurement": "IC50", "setting": "[2]", "result": "6 ± 1", "unit": "nM"}, {"measurement": "AUC0-7h Day 1, unbound concentrations of 4", "setting": "[3]; [6]", "result": "2419 ± 453", "unit": "ng·h/mL"}, {"measurement": "AUC0-7h Day 5, unbound concentrations of 4", "setting": "[3]; [6]", "result": "1488 ± 292", "unit": "ng·h/mL"}, {"measurement": "Cmax Day 1, unbound concentrations of 4", "setting": "[3]; [6]", "result": "496 ± 82", "unit": "ng/mL"}, {"measurement": "Cmax Day 5, unbound concentrations of 4", "setting": "[3]; [6]", "result": "650 ± 203", "unit": "ng/mL"}, {"measurement": "AUC0-7h Day 1, unbound concentrations of 4", "setting": "[3]; [7]", "result": "10441 ± 1994", "unit": "ng·h/mL"}, {"measurement": "AUC0-7h Day 5, unbound concentrations of 4", "setting": "[3]; [7]", "result": "6773 ± 311", "unit": "ng·h/mL"}, {"measurement": "Cmax Day 1, unbound concentrations of 4", "setting": "[3]; [7]", "result": "1931 ± 261", "unit": "ng/mL"}, {"measurement": "Cmax Day 5, unbound concentrations of 4", "setting": "[3]; [7]", "result": "1577 ± 161", "unit": "ng/mL"}, {"measurement": "AUC0-7h Day 1, unbound concentrations of 4", "setting": "[3]; 4 50mg/kg bid alone", "result": "16176 ± 776", "unit": "ng·h/mL"}, {"measurement": "AUC0-7h Day 5, unbound concentrations of 4", "setting": "[3]; 4 50mg/kg bid alone", "result": "17378 ± 1605", "unit": "ng·h/mL"}, {"measurement": "Cmax Day 1, unbound concentrations of 4", "setting": "[3]; 4 50mg/kg bid alone", "result": "2934 ± 294", "unit": "ng/mL"}, {"measurement": "Cmax Day 5, unbound concentrations of 4", "setting": "[3]; 4 50mg/kg bid alone", "result": "3736 ± 628", "unit": "ng/mL"}, {"measurement": "fraction unbound at 4 h, 2 μM", "setting": "[4]", "result": 0.22}]}
{"smiles": "COc1cc(F)ccc1-c1c(C)[nH]c2nc(N)nc(C)c12", "note": "[Compound 2, 5-(4-Fluoro-2-methoxyphenyl)-4,6-dimethyl-7H-pyrrolo[2,3-d]pyrimidin-2-amine]", "values": [{"measurement": "EC50", "setting": "[1]; read-out: EC50 F222L", "result": "3620 ± 322", "unit": "nM"}, {"measurement": "EC50", "setting": "[1]; read-out: EC50 L197I", "result": "117 ± 5", "unit": "nM"}, {"measurement": "fold change from WT, L197I", "setting": "[1]", "result": 4, "unit": "fold"}, {"measurement": "fold change from WT, F222L", "setting": "[1]", "result": 109, "unit": "fold"}, {"measurement": "IC50", "setting": "[2]", "result": "8 ± 1", "unit": "nM"}, {"measurement": "No. cured/ no. tested", "setting": "[5]; 50 mg/kg bid oral, 10 days", "result": "2 of the 6 and 2/6"}, {"measurement": "No. cured/ no. tested", "setting": "[5]; 50 mg/kg bid oral, 21 days", "result": "2/6"}, {"measurement": "No. cured/ no. tested", "setting": "[5]; 100 mg/kg bid oral, 10 days (changed to once daily after day 1)", "result": "2/4"}, {"measurement": "toxicity in infected mice", "setting": "[5]; 100 mg/kg bid, after first day of treatment", "result": "two mice were culled due to toxicity"}, {"measurement": "AUC(0-t)", "setting": "[3]; 50 mg/kg, compound 2 50mg/kg bid, 21-day study, read-out: AUC0-7h Day 1", "result": "5280 ± 1230", "unit": "ng·h/mL"}, {"measurement": "AUC(0-t)", "setting": "[3]; 50 mg/kg, compound 2 50mg/kg bid, 21-day study, read-out: AUC0-7h Day 21", "result": "8860 ± 1210", "unit": "ng·h/mL"}, {"measurement": "Cmax", "setting": "[3]; 50 mg/kg, compound 2 50mg/kg bid, 21-day study, read-out: Cmax Day 1", "result": "870 ± 196", "unit": "ng/mL"}, {"measurement": "Cmax", "setting": "[3]; 50 mg/kg, compound 2 50mg/kg bid, 21-day study, read-out: Cmax Day 21", "result": "1470 ± 202", "unit": "ng/mL"}, {"measurement": "AUC(0-t)", "setting": "[3]; 100 mg/kg, compound 2 100mg/kg bid (changed to qd after day 1), 10-day study, read-out: AUC0-7h Day 1", "result": "6270 ± 1140", "unit": "ng·h/mL"}, {"measurement": "AUC(0-t)", "setting": "[3]; 100 mg/kg, compound 2 100mg/kg bid (changed to qd after day 1), 10-day study, read-out: AUC0-7h Day 10", "result": "11500 ± 1950", "unit": "ng·h/mL"}, {"measurement": "Cmax", "setting": "[3]; 100 mg/kg, compound 2 100mg/kg bid (changed to qd after day 1), 10-day study, read-out: Cmax Day 1", "result": "1250 ± 236", "unit": "ng/mL"}, {"measurement": "Cmax", "setting": "[3]; 100 mg/kg, compound 2 100mg/kg bid (changed to qd after day 1), 10-day study, read-out: Cmax Day 10", "result": "2260 ± 315", "unit": "ng/mL"}, {"measurement": "fraction unbound at 4 h, 2 μM", "setting": "[4]", "result": 0.18}]}
